The values below come from patent US20170191057A1, “RNA EDITING BIOMARKERS FOR DIAGNOSIS, PHARMACOLOGICAL SCREENING AND PROGNOSTICATION IN CANCER” (REGENTS OF THE UNIVERSITY OF CALIFORNIA, priority 2014, published 2017).

Test [1] has as its system ADAR1. Nature of the test: qRT-PCR of total ADAR1 levels after 8-azaadenosine treatment. The class given is cell-based, human. Particulars: cord blood, ABM, and blast crisis cells; FIG. 21A. As for the experimental part: (A) 8-azaadenosine treatment results in reduced total ADAR1 levels by qRT-PCR, and (B) decreased RNA editing in APOBEC3D (Sites 1 & 2) by direct sequencing.
Cell lines, lentivirus-transduced primary hematopoietic cells, or FACS-purified primary cells were harvested in lysis buffer (Qiagen). RNA was purified using RNeasy extraction kits with a DNase (Qiagen) incubation step to digest any trace genomic DNA present. For RNA extraction from cell line lysates, 1-2×10^6 cells were extracted using RNeasy mini columns, and for primary cells, 5-10×10^4 cells were lysed and extracted using RNeasy micro columns. Genomic DNA was purified from equal numbers of cells lysed separately using the QIAamp DNA Blood Mini Kit (Qiagen) including an RNase A incubation step to digest any RNA present (Qiagen). RNA was stored at −80° C. and gDNA stored at −20° C. Immediately prior to reverse transcription of RNA samples, nucleic acid concentrations were quantified on a NanoDrop 2000 spectrophotometer (Thermo Scientific), and purity was considered acceptable if A260/A280 values were >1.8. […]
(Real-time PCR tracks product formation cycle by cycle.)

Test [2] has as its system RNA editing in APOBEC3D (Sites 1 & 2). As to the kind of experiment: Direct sequencing of CSC-specific RNA editing biomarkers in APOBEC3D after 8-azaadenosine treatment. The class given is cell-based, human. Here is the method:
As proof-of-concept that small molecule inhibitors could block RNA editing activity, CD34^+ cells from a CML blast crisis patient were treated with vehicle or 1 μM 8-azaadenosine (Veliz et al., JACS 2003) for 24 hours and co-cultured on humanized bone marrow stromal cells (SL/M2) for 5 days. […] Thus, RESSq-PCR and RNA editing inhibitors is an allele-specific diagnostic assay that can be used for detection of primate-specific RNA editing events in cancer stem cells.
For PCR and targeted Sanger sequencing analysis, 1-2 μL of first-strand cDNA templates were prepared for PCR in 25-50 μL reaction volumes using the high-fidelity KOD Hot Start DNA Polymerase kit according to the manufacturer's instructions (EMD Millipore, Temecula, Calif.). “Outer” primers (Additional file 2: Table S2) used for sequencing produce predicted amplicons of approximately 150-250 nucleotides in length, and flank each editing site with approximately 50-100 bp on either side of the editing site to facilitate successful sequencing analysis. […] Sequence chromatograms were analyzed using 4Peaks (by A. Griekspoor and Tom Groothuis) and peak heights calculated using ImageJ (NIH). For RNA editing analysis of sequencing chromatograms, ratios of edited/WT peaks were calculated using the raw peak amplitude of each sequence trace.

Turning to `Nc1ncnc2c1nnn2[C@@H]1O[C@H](CO)[C@@H](O)[C@H]1O` [8-azaadenosine], in test [1], the “total ADAR1 levels by qRT-PCR” value is recorded as “reduced”. Further, in test [2] (CD34+ cells from a CML blast crisis patient, 1 μM for 24 hours vs vehicle, co-cultured on SL/M2 stromal cells for 5 days), the “edit/wild-type sequence ratios of two CSC-specific RNA editing biomarkers in APOBEC3D” value is “reduction”. The “RNA editing in APOBEC3D (Sites 1 & 2) by direct sequencing” value in test [2] (cord blood, ABM, and blast crisis cells, FIG. 21B) is given as “decreased”.
